Data published in article PMC5285354, “Cationic Net Charge and Counter Ion Type as Antimicrobial Activity Determinant Factors of Short Lipopeptides” (Frontiers in Microbiology, 2017).
Values after ≈ are worked out from the molar mass of the structure shown. Read-outs that look alike come from different tables or passages of the source. Values belong to the molecule of their own block, whether it stands above or below them. Where a SMILES comes first, the peptide text is derived from it. The star is where a group is joined. Myristoyl = CCCCCCCCCCCCCC(=O)*

Assays:
Type in all cases: cell-based
[1] = system: Proteus vulgaris (PCM 2668); settings: 24 h
[2] = system: Pseudomonas aeruginosa (ATCC 9027); settings: ATCC 9027, 24 h
[3] = system: Candida albicans (ATCC 10231)
[4] = system: Staphylococcus epidermidis (PCM 2118); settings: for MIC Staphylococcus epidermidis: PCM 2118, 18 h; for MBC Staphylococcus epidermidis: PCM 2118, 24 h
In short: (§1)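 Broth microdilution per CLSI: Mueller-Hinton broth, 10^5 cfu/mL inoculum, 18 h at 37°C for bacteria; Sabouraud dextrose broth, 10^3 cfu/mL, 48 h at 25°C for fungi. MIC (μg/mL) is the lowest lipopeptide concentration inhibiting visible growth; MBC/MFC also determined. Triplicate on three days.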

[5] = system: Aspergillus brasiliensis (ATCC 16404); settings: ATCC 16404, 48 h
In short: (§2)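 CLSI broth microdilution: bacteria in Mueller-Hinton broth at 10^5 cfu/mL inoculum, 18 h at 37°C; fungi in Sabouraud Dextrose broth at 10^3 cfu/mL, 48 h at 25°C. MIC (μg/mL) is the lowest lipopeptide concentration inhibiting visible growth; triplicate on three days.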

[6] = system: Candida albicans (ATCC 10231); settings: ATCC 10231, 48 h
In short: as §2

[7] = system: Enterococcus faecalis (ATCC 29212)
In short: as §1

[8] = system: Pseudomonas aeruginosa (ATCC 9027); settings: ATCC 9027, 18 h
In short: as §2

[9] = system: Proteus vulgaris (PCM 2668)
In short: as §2

[10] = system: Candida tropicalis (PCM 2681); settings: PCM 2681, 48 h
In short: as §2

[11] = system: Bacillus subtilis (ATCC 6633); settings: for MIC Bacillus subtillis: ATCC 6633, 18 h; for MBC Bacillus subtillis: ATCC 6633, 24 h
In short: as §1

[12] = system: Escherichia coli (ATCC 25922)
In short: as §2

[13] = system: Klebsiella pneumoniae (ATCC 700603)
In short: as §2

[14] = system: Staphylococcus aureus (ATCC 25923)
In short: as §2

human red blood cells = settings: 1 h
Method: The hemolytic activity of the lipopeptides was determined by exposing human red blood cells (4% v/v) to tested compounds at graded concentrations. Red blood cells were obtained from a healthy donor. EDTA was used to prevent the blood clotting. The plasma was removed via centrifugation and the erythrocytes were washed three times with PBS. The red blood cells were suspended in PBS and incubated with different concentrations of lipopeptides at 37°C for 1 h and centrifuged for 5 min at 1000 × g. The supernatants were transferred to a sterile 96-well plate and hemoglobin release was measured with an Epoch microplate spectrophotometer (BioTek, USA) by recording the absorbance at 550 nm. A 0.1% Triton X-100 solution was used as the positive control (100% of hemolysis) and pure PBS as the negative (0% of hemolysis). Minimum hemolytic concentration (MHC) was taken as the lowest concentration which induced 10% of hemolysis.

- MIC Staphylococcus epidermidis [4]: 16 µg/mL (≈ 38.8 µM)
- MIC Aspergillus brasiliensis [5]: 128 µg/mL (≈ 310 µM)
- MIC Candida albicans [6]: 128 µg/mL (≈ 310 µM)
- MIC Enterococcus fecalis ([7]; ATCC 29212, 18 h): 32 µg/mL (≈ 77.6 µM)
- MIC Pseudomonas aeruginosa [8]: 32 µg/mL (≈ 77.6 µM)
- MIC Proteus vulgaris ([9]; 18 h): >512 µg/mL
- MIC Candida tropicalis [10]: 256 µg/mL (≈ 620 µM)
- MIC Bacillus subtillis [11]: 16 µg/mL (≈ 38.8 µM)
- MIC Escherichia coli ([12]; ATCC 25922, 18 h): 64 µg/mL (≈ 155 µM)
- MIC Klebsiella pneumoniae ([13]; ATCC 700603, 18 h): 32 µg/mL (≈ 77.6 µM)
- MIC Staphylococcus aureus ([14]; ATCC 25923, 18 h): 32 µg/mL (≈ 77.6 µM)
SMILES: CCCCCCCCCCCCCC(=O)N[C@@H](CCCCN)C(=O)NCC(N)=O [C14-KG-NH2] (Myristoyl-Lys-Gly-NH2)
- MBC Proteus vulgaris [1]: >512 µg/mL
- MBC Pseudomonas aeruginosa [2]: 64 µg/mL (≈ 155 µM)
- MFC Candida albicans, lipopeptides without TFA counter ion [3]: 256 µg/mL (≈ 620 µM)
- MBC Staphylococcus epidermidis [4]: 16 µg/mL (≈ 38.8 µM)
- MFC Aspergillus brasiliensis [5]: 128 µg/mL (≈ 310 µM)
- MFC Candida albicans [6]: 128 µg/mL (≈ 310 µM)
- MIC Candida albicans, lipopeptides without TFA counter ion [6]: 256 µg/mL (≈ 620 µM)
- MBC Enterococcus fecalis, lipopeptides without TFA counter ion ([7]; ATCC 29212, 18 h): 32 µg/mL (≈ 77.6 µM)
- MIC Enterococcus fecalis, lipopeptides without TFA counter ion ([7]; ATCC 29212, 18 h): 32 µg/mL (≈ 77.6 µM)
- MBC Enterococcus fecalis ([7]; ATCC 29212, 24 h): 32 µg/mL (≈ 77.6 µM)
- MFC Candida tropicalis [10]: 256 µg/mL (≈ 620 µM)
- MBC Bacillus subtillis [11]: 16 µg/mL (≈ 38.8 µM)
- MBC Escherichia coli, lipopeptides without TFA counter ion ([12]; ATCC 25922, 18 h): 64 µg/mL (≈ 155 µM)
- MIC Escherichia coli, lipopeptides without TFA counter ion ([12]; ATCC 25922, 18 h): 64 µg/mL (≈ 155 µM)
- MBC Escherichia coli ([12]; ATCC 25922, 24 h): 64 µg/mL (≈ 155 µM)
- MBC Klebsiella pneumoniae, lipopeptides without TFA counter ion ([13]; ATCC 700603, 18 h): 64 µg/mL (≈ 155 µM)
- MIC Klebsiella pneumoniae, lipopeptides without TFA counter ion ([13]; ATCC 700603, 18 h): 32 µg/mL (≈ 77.6 µM)
- MBC Klebsiella pneumoniae ([13]; ATCC 700603, 24 h): 32 µg/mL (≈ 77.6 µM)
- MBC Staphylococcus aureus, lipopeptides without TFA counter ion ([14]; ATCC 25923, 18 h): 32 µg/mL (≈ 77.6 µM)
- MIC Staphylococcus aureus, lipopeptides without TFA counter ion ([14]; ATCC 25923, 18 h): 32 µg/mL (≈ 77.6 µM)
- MBC Staphylococcus aureus ([14]; ATCC 25923, 24 h): 32 µg/mL (≈ 77.6 µM)

- MIC Staphylococcus epidermidis [4]: 256 µg/mL (≈ 599 µM)
- MIC Aspergillus brasiliensis [5]: 1000 µg/mL (≈ 2340 µM)
- MIC Candida albicans [6]: 2000 µg/mL (≈ 4680 µM)
- MIC Enterococcus fecalis ([7]; ATCC 29212, TFA salt, Mueller-Hinton broth, 10^5 cfu/mL, 18 h 37°C, triplicate): >2000 µg/mL
- MIC Pseudomonas aeruginosa [8]: 2000 µg/mL (≈ 4680 µM)
- MIC Proteus vulgaris ([9]; PCM 2668, TFA salt, Mueller-Hinton broth, 10^5 cfu/mL, 18 h 37°C, triplicate): >2000 µg/mL
- MIC Candida tropicalis [10]: 1000 µg/mL (≈ 2340 µM)
- MIC Bacillus subtillis [11]: 256 µg/mL (≈ 599 µM)
- MIC Escherichia coli ([12]; ATCC 25922, TFA salt, Mueller-Hinton broth, 10^5 cfu/mL, 18 h 37°C, triplicate): >2000 µg/mL
- MIC Klebsiella pneumoniae ([13]; ATCC 700603, TFA salt, Mueller-Hinton broth, 10^5 cfu/mL, 18 h 37°C, triplicate): >2000 µg/mL
- MIC Staphylococcus aureus ([14]; ATCC 25923, TFA salt, Mueller-Hinton broth, 10^5 cfu/mL, 18 h 37°C, triplicate on three days): >2000 µg/mL
SMILES: CCCCCCCCCC(=O)N[C@@H](CCCCN)C(=O)N[C@@H](CCCCN)C(N)=O [C10-KK-NH2]
- Hemolysis HC10 (MHC), concentration of lipopeptide inducing 10% of hemolysis (human red blood cells): 4000 µg/mL
- MBC Pseudomonas aeruginosa [2]: 2000 µg/mL (≈ 4680 µM)
- MBC Staphylococcus epidermidis [4]: 512 µg/mL (≈ 1200 µM)
- MFC Aspergillus brasiliensis [5]: 1000 µg/mL (≈ 2340 µM)
- MFC Candida albicans [6]: 2000 µg/mL (≈ 4680 µM)
- MBC Enterococcus fecalis ([7]; ATCC 29212, TFA salt, subculture on Mueller-Hinton II Agar, 24 h 37°C, triplicate): >2000 µg/mL
- MBC Proteus vulgaris ([9]; PCM 2668, TFA salt, subculture on Mueller-Hinton II Agar, 24 h 37°C, triplicate): >2000 µg/mL
- MFC Candida tropicalis [10]: 1000 µg/mL (≈ 2340 µM)
- MBC Bacillus subtillis [11]: 512 µg/mL (≈ 1200 µM)
- MBC Escherichia coli ([12]; ATCC 25922, TFA salt, subculture on Mueller-Hinton II Agar, 24 h 37°C, triplicate): >2000 µg/mL
- MBC Klebsiella pneumoniae ([13]; ATCC 700603, TFA salt, subculture on Mueller-Hinton II Agar, 24 h 37°C, triplicate): >2000 µg/mL
- MBC Staphylococcus aureus ([14]; ATCC 25923, TFA salt, MIC wells subcultured on Mueller-Hinton II Agar, 24 h 37°C, triplicate): >2000 µg/mL
